In US20170150719A1, “FUNGICIDAL PYRAZOLES AND THEIR MIXTURES” (E I DU PONT DE NEMOURS AND COMPANY, priority 2010, published 2017):

Legend:
Septoria tritici = assay: Test F: wheat leaf blotch, preventive spray on wheat seedlings, visual disease rating; type: in vivo; settings: 100 = 100% disease control; for Test F rating (disease control) / pest or weed control at 200 µg/mL: 0 = no disease control relative to the controls; for Test F rating (% disease control): preventive spray, rating without asterisk; for pest or weed control at 200 µg/mL: Zymoseptoria tritici
Source text: (§1) A hyphen (-) indicates no test results.

[1] = tested on: Puccinia recondita f. sp. tritici; assay: Test G: wheat leaf rust, spray after inoculation (curative) on wheat seedlings, visual disease rating; type: in vivo; settings: 100 = 100% disease control; for Test G rating (disease control) / pest or weed control at 200 µg/mL: sprayed after inoculation, 0 = no disease control; for Test G rating (% disease control): spray after inoculation, rating without asterisk
Source text: as §1

[2] = tested on: Puccinia recondita f. sp. tritici; assay: Test H: wheat leaf rust, preventive spray on wheat seedlings, visual disease rating; settings: 100 = 100% disease control; for Test H rating (disease control) / Test H rating (% disease control): wheat leaf rust; for Test H rating (disease control): sprayed the day before inoculation; for Test H rating (disease control) / pest or weed control at 200 µg/mL: 0 = no disease control; for Test H rating (% disease control): preventive spray, rating without asterisk; for pest or weed control at 200 µg/mL: read-out: Test H rating (disease control), wheat leaf rust, sprayed the day before inoculation
Botrytis cinerea = assay: Test A: tomato Botrytis, preventive spray on tomato seedlings, visual disease rating; settings: 100 = 100% disease control; for Test A rating (disease control) / Test A rating (% disease control): tomato Botrytis; for Test A rating (disease control) / pest or weed control at 200 µg/mL: 0 = no disease control relative to the controls; for Test A rating (% disease control): preventive spray, 0 = no control relative to controls, rating without asterisk; for pest or weed control at 200 µg/mL: Botrytis cinerea, in Solanum lycopersicum, read-out: Test A rating (disease control), tomato Botrytis
Alternaria solani = assay: Test B: tomato early blight, preventive spray on tomato seedlings, visual disease rating; settings: for Test B rating (disease control) / Test B rating (% disease control): tomato early blight, 100 = 100% disease control; for Test B rating (disease control): 0 = no disease control relative to the controls; for Test B rating (% disease control): preventive spray, rating without asterisk; for pest or weed control at 200 µg/mL: Alternaria solani, in Solanum lycopersicum, read-out: Test B rating (disease control)
[3] = tested on: Blumeria graminis f. sp. tritici; assay: Test I: wheat powdery mildew, preventive spray on wheat seedlings, visual disease rating; settings: 100 = 100% disease control; for Test I rating (disease control) / Test I rating (% disease control): wheat powdery mildew; for Test I rating (disease control) / pest or weed control at 200 µg/mL: 0 = no disease control relative to the controls; for Test I rating (% disease control): preventive spray, rating without asterisk; for pest or weed control at 200 µg/mL: Blumeria graminis, in Triticum aestivum, read-out: Test I rating (disease control), wheat powdery mildew
Septoria nodorum = assay: Test E: Septoria glume blotch, preventive spray on wheat seedlings, visual disease rating; settings: 100 = 100% disease control; for Test E rating (disease control): Septoria glume blotch; for Test E rating (disease control) / pest or weed control at 200 µg/mL: 0 = no disease control relative to the controls; for Test E rating (% disease control): Septoria glume blotch on wheat, preventive spray, rating without asterisk; for pest or weed control at 200 µg/mL: Parastagonospora nodorum, in Triticum aestivum, read-out: Test E rating (disease control), Septoria glume blotch

| SMILES | Test F rating (disease control) (Septoria tritici) [%] | Test G rating (disease control) [1] [%] | Test H rating (disease control) [2] [%] | Test A rating (disease control) (Botrytis cinerea) [%] | Test B rating (disease control) (Alternaria solani) [%] | Test I rating (disease control) [3] [%] | Test E rating (disease control) (Septoria nodorum) [%] | further results |
| --- | --- | --- | --- | --- | --- | --- | --- | --- |
| Cc1nn(C)c(Nc2ccc(Br)cc2F)c1-c1ccc(F)cc1Cl [compound 135] | 100 | 9 | 99 | 100 | 58 | 100 | 0 | – |
| Cc1nn(C)c(Nc2ccc(Br)cc2Cl)c1-c1ccc(F)cc1Br [compound 173] | 100 | 0 | 99 | 100 | 0 | 99 | 40 | – |
| COc1ccc(-c2c(C)nn(C)c2Nc2c(F)cc(F)cc2I)c(Cl)c1 [compound 219] | – | – | – | – | – | – | – | Test F rating (% disease control) (Septoria tritici): 100%; Test G rating (% disease control) [1]: 99%; Test H rating (% disease control) [2]: 100%; Test A rating (% disease control) (Botrytis cinerea): 100%; Test B rating (% disease control) (Alternaria solani): 100%; Test I rating (% disease control) [3]: 99%; Test E rating (% disease control) (Septoria nodorum): 100% |
| COc1ccc(-c2c(C)nn(C)c2Nc2c(F)cc(I)cc2F)c(Cl)c1 [compound 220] | – | – | – | – | – | – | – | Test F rating (% disease control) (Septoria tritici): 100%; Test G rating (% disease control) [1]: 0%; Test H rating (% disease control) [2]: 97%; Test A rating (% disease control) (Botrytis cinerea): 100%; Test B rating (% disease control) (Alternaria solani): 69%; Test I rating (% disease control) [3]: 96%; Test E rating (% disease control) (Septoria nodorum): 73% |
| Cc1nn(C)c(Oc2ccc(C#N)cc2F)c1-c1ccc(Cl)cc1F [compound 119] | 100 | 0 | 91 | 99 | 94 | 99 | 94 | – |
| Cc1nn(C)c(Nc2c(Cl)cc(Cl)cc2I)c1-c1ccc(F)cc1F [compound 210] | – | – | – | – | – | – | – | Test F rating (% disease control) (Septoria tritici): 100%; Test G rating (% disease control) [1]: 0%; Test H rating (% disease control) [2]: 97%; Test A rating (% disease control) (Botrytis cinerea): 3%; Test B rating (% disease control) (Alternaria solani): 0%; Test I rating (% disease control) [3]: 0%; Test E rating (% disease control) (Septoria nodorum): 0% |
| Cc1nn(C)c(Nc2c(Cl)cc(F)cc2Br)c1-c1ccc(F)cc1F [compound 120] | 100 | 19 | 100 | 100 | 80 | 100 | 94 | – |
| Cc1nn(C)c(Oc2ccc(Cl)cc2Cl)c1-c1c(F)cc(F)cc1F [compound 9] | 97 | 0 | 99 | 99 | 9 | 99 | 0 | – |
| COc1ccc(-c2c(C)nn(C)c2Oc2ccc(C#N)cc2Cl)c(Cl)c1 [compound 93] | 100 | 0 | 99 | 100 | 0 | 91 | 60 | – |
| Cc1nn(C)c(Nc2c(F)cc(C#N)cc2F)c1-c1ccc(F)cc1F [compound 83] | 100 | 0 | 100 | 100 | 99 | 100 | 87 | – |
| Cc1nn(C)c(Nc2c(Cl)cc(F)cc2Cl)c1-c1c(Cl)cccc1Cl [compound 115] | 99 | 0 | 99 | 99 | 0 | 93 | 0 | – |
| COc1ccc(-c2c(C)nn(C)c2Oc2ccc(C#N)cc2F)c(Cl)c1 [compound 92] | 100 | 0 | 99 | 100 | 99 | 96 | 99 | – |
| Cc1nn(C)c(Nc2ccc(Br)cc2F)c1-c1ccc(F)cc1Br [compound 169] | 100 | 23 | 96 | 100 | 0 | 99 | 60 | – |
| Cc1nn(C)c(Nc2c(F)cc(F)cc2F)c1-c1ccc(F)cc1Cl [Compound 4, 4-(2-chloro-4-fluorophenyl)-1,3-dimethyl-N-(2,4,6-trifluorophenyl)-1H-pyrazol-5-amine] | – | – | – | – | – | – | – | pest or weed control at 200 µg/mL (Septoria tritici): 95%; pest or weed control at 200 µg/mL [1]: 99%; pest or weed control at 200 µg/mL [2]: 100%; pest or weed control at 200 µg/mL (Botrytis cinerea): 99%; pest or weed control at 200 µg/mL (Alternaria solani): 100%; pest or weed control at 200 µg/mL [3]: 100%; pest or weed control at 200 µg/mL (Septoria nodorum): 99% |
| Cc1nn(C)c(Nc2c(F)cc(Br)cc2F)c1-c1ccc(F)cc1Cl [Compound 134, N-(4-bromo-2,6-difluorophenyl)-4-(2-chloro-4-fluorophenyl)-1,3-dimethyl-1H-pyrazol-5-amine] | – | – | – | – | – | – | – | pest or weed control at 200 µg/mL (Septoria tritici): 100%; pest or weed control at 200 µg/mL [1]: 74%; pest or weed control at 200 µg/mL [2]: 100%; pest or weed control at 200 µg/mL (Botrytis cinerea): 100%; pest or weed control at 200 µg/mL (Alternaria solani): 99%; pest or weed control at 200 µg/mL [3]: 100%; pest or weed control at 200 µg/mL (Septoria nodorum): 64% |
| Cc1nn(C)c(Oc2c(F)cc(C#N)cc2F)c1-c1ccccc1F [compound 91] | 100 | 0 | 99 | 99 | 99 | 99 | 94 | – |
| Cc1nn(C)c(Nc2c(Cl)cc(F)cc2Cl)c1-c1ccc(F)cc1Br [compound 98] | 99 | 9 | 99 | 99 | 0 | 96 | 0 | – |
| COc1ccc(Nc2c(-c3ccc(F)cc3Cl)c(C)nn2C)c(Cl)c1 [compound 101] | 100 | 99 | 100 | 100 | 93 | 100 | 0 | – |
| Cc1nn(C)c(Nc2c(F)cc(F)cc2Br)c1-c1ccc(F)cc1Cl [Compound 144, N-(2-bromo-4,6-difluorophenyl)-4-(2-chloro-4-fluorophenyl)-1,3-dimethyl-1H-pyrazol-5-amine] | – | – | – | – | – | – | – | pest or weed control at 200 µg/mL (Septoria tritici): 100%; pest or weed control at 200 µg/mL [1]: 100%; pest or weed control at 200 µg/mL [2]: 100%; pest or weed control at 200 µg/mL (Botrytis cinerea): 100%; pest or weed control at 200 µg/mL (Alternaria solani): 99%; pest or weed control at 200 µg/mL [3]: 100%; pest or weed control at 200 µg/mL (Septoria nodorum): 100% |
| COc1cc(F)c(-c2c(C)nn(C)c2Nc2ccc(F)cc2F)c(F)c1 [Compound 6, 4-(2,6-difluoro-4-methoxyphenyl)-N-(2,4-difluorophenyl)-1,3-dimethyl-1H-pyrazol-5-amine] | – | – | – | – | – | – | – | pest or weed control at 200 µg/mL (Septoria tritici): 93%; pest or weed control at 200 µg/mL [1]: 92%; pest or weed control at 200 µg/mL [2]: 100%; pest or weed control at 200 µg/mL (Botrytis cinerea): 98%; pest or weed control at 200 µg/mL (Alternaria solani): 100%; pest or weed control at 200 µg/mL [3]: 100%; pest or weed control at 200 µg/mL (Septoria nodorum): 99% |
| Cc1nn(C)c(Nc2c(F)cc(Br)cc2Br)c1-c1ccc(F)cc1I [compound 223] | – | – | – | – | – | – | – | Test F rating (% disease control) (Septoria tritici): 100%; Test G rating (% disease control) [1]: 0%; Test H rating (% disease control) [2]: 97%; Test A rating (% disease control) (Botrytis cinerea): 98%; Test B rating (% disease control) (Alternaria solani): 88%; Test I rating (% disease control) [3]: 99%; Test E rating (% disease control) (Septoria nodorum): 0% |
